According to patent publication US7671050B2, “Triazolophthalazines” (NYCOMED GmbH, priority 2005, dated 2010):
No end group written: not given here.

Assays:
HUVEC monolayers = experiment: Inhibition of thrombin-stimulated macromolecule (HRP) permeability of HUVEC monolayers; type: cell-based, human; settings: 1 U/ml thrombin; for IC50: Homo sapiens, 1 h, HUVEC on Transwells, 1 μM RP73401, 10 μM Motapizone, 1 mM SNP or 100 nM ANP, HRP passage after 60 min, read-out: Inhibition of SNP- or ANP-induced permeability, -log IC50 (converted); for Effect on thrombin-induced hyperpermeability (HRP passage): 1 μM RP73401 together with 10 μM Motapizone, 60 min
Procedure: The procedure to measure macromolecule permeability of endothelial cell monolayers followed the method described by Langeler & van Hinsbergh (1988) with modifications. Human umbilical vein endothelial cells were isolated from umbilical cords according to standard procedures (Jaffe et al. 1973) and cultured in endothelial cell basal medium (EBM) supplemented with 2% FCS, 0.5 ng/ml VEGF, 10 ng/ml bFGF, 5 ng/ml EGF, 20 ng/ml Long R3 IGF-1, 0.2 μg/ml hydrocortisone, 1 μg/ml ascorbic acid, 22.5 μg/ml heparin, 50 μg/ml gentamicin, 50 ng/ml amphotericin B (EGM2 purchased from Promocell GmbH, Heidelberg, Germany). At confluency, cells were trypsinized and replated at 73000 cells per well on 3 μm polycarbonate filter Transwell inserts (Costar GmbH, Bodenheim, Germany) precoated with 10 μg cm^2−1 Fibronectin (Sigma, Taufkirchen, Germany). HUVECs were cultured in EGM2 (100 μl in the upper wells and 600 μl in the lower wells) over four days prior the experiments and medium was changed every other day. At the day of the experiment culture medium was replaced by M199 with 1% human serum albumin. Endothelial cells were preincubated with cyclic nucleotide modifiers (the selective PDE3 inhibitor motapizone, the selective PDE4 inhibitor RP73401, the cGMP generators ANP or SNP and PDE2 inhibitors) for 15 min. HUVECs were then stimulated with Thrombin (1 U ml^−1) (Sigma, Taufkichen, Germany) and horsh radish peroxidase (5 μg/ml) (Sigma, Taufkirchen, Germany) as the macromolecule marker protein was added to the upper wells. Following 1 h incubation time Transwells were removed and the activity of horsh radish peroxidase that penetrated the endothelial cell monolayer was measured in the lower wells with the 3,3′,5,5′-tetramethylbenzidine liquid substrate system from Sigma (Taufkirchen, Germany).
In parallel, compounds according to the invention can inhibit Thrombin-induced permeability of HUVEC monolayers for horsh radish peroxidase (HRP) as a macromolecule marker. […] The concentration-dependent inhibition of HRP permeability at different concentrations was assessed from the percent inhibition in the presence and absence of the PDE2 inhibitors and in the presence of 1 μM RP73401, 10 μM Motapizone and 100 nM ANP.
HUVEC cells on 3 μm polycarbonate filters (Transwells) were preincubated with 1 μM RP73401 (to block PDE4) and 10 μM Motapizone (to block PDE3), 1 mM SNP or 100 nM ANP and test sample over 15 min and then stimulated with 1 U/ml thrombin. HRP passage into the lower wells was assessed after 60 min.

Molecule | melting point | IC50 (HUVEC monolayers) | Effect on thrombin-induced hyperpermeability (HRP passage) (HUVEC monolayers) | Effect on the block of thrombin-induced hyperpermeability by RP73401 and Motapizone (HUVEC monolayers; 1 mM SNP or 100 nM ANP added to 1 μM RP73401 and 10 μM Motapizone)
COc1ccc(Nc2nn3c(-c4ccc(OC)cc4)nnc3c3ccccc23)cc1 [Example 1, (4-Methoxyphenyl)-[3-(4-methoxyphenyl)-[1,2,4]triazolo[3,4-a]phthalazin-6-yl]-amine] | 301 to 304 °C | – | – | –
COc1ccc(-c2nnc3c4ccccc4c(Nc4ccc(OC)c(OC)c4)nn23)cc1 [Example 2, (3,4-Dimethoxy-phenyl)-[3-(4-methoxy-phenyl)-[1,2,4]triazolo[3,4-a]phthalazin-6-yl]-amine] | – | 7.94 to 316 nM | – | –
COc1ccc(-c2nnc3c4ccccc4c(Nc4cccc(OCc5ccccc5)c4)nn23)cc1 [Example 4, (3-Benzyloxyphenyl)-[3-(4-methoxyphenyl)-[1,2,4]triazolo[3,4-a]phthalazin-6-yl]-amine] | 260 °C | – | – | –
COc1ccc(-c2nnc3c4ccccc4c(Nc4ccc(Cl)cc4)nn23)cc1 [Example 5, (4-Chlorophenyl)-[3-(4-methoxyphenyl)-[1,2,4]triazolo[3,4-a]phthalazin-6-yl]-amine] | 295 °C | – | – | –
COc1ccc(-c2ccc(Nc3nn4c(-c5ccc(OC)cc5)nnc4c4ccccc34)cc2)cc1 [Example 6, (4′-Methoxybiphenyl-4-yl)-[3-(4-methoxyphenyl)-[1,2,4]triazolo[3,4-a]phthalazin-6-yl]-amine] | – | 7.94 to 316 nM | – | –
COc1ccc(-c2nnc3c4ccccc4c(Nc4cccc(OC)c4)nn23)cc1 [Example 7, (3-Methoxyphenyl)-[3-(4-methoxyphenyl)-[1,2,4]triazolo[3,4-a]phthalazin-6-yl]-amine] | – | 7.94 to 316 nM | – | –
COc1ccc(-c2nnc3c4ccccc4c(Nc4ccc(Oc5ccccc5)cc4)nn23)cc1 [Example 8, [3-(4-Methoxyphenyl)-[1,2,4]triazolo[3,4-a]phthalazin-6-yl]-(4-phenoxyphenyl)-amine] | 275.5 °C | 7.94 to 316 nM | – | –
COc1ccc(-c2nnc3c4ccccc4c(Nc4cccc(Oc5ccccc5)c4)nn23)cc1 [Example 9, [3-(4-Methoxyphenyl)-[1,2,4]triazolo[3,4-a]phthalazin-6-yl]-(3-phenoxyphenyl)-amine] | – | 7.94 to 316 nM | – | –
COc1ccc(-c2nnc3c4ccccc4c(Nc4ccc(OCc5ccccc5)cc4)nn23)cc1 [Example 10, (4-Benzyloxyphenyl)-[3-(4-methoxyphenyl)-[1,2,4]triazolo[3,4-a]phthalazin-6-yl]-amine] | 297 °C | 7.94 to 316 nM | – | –
COc1ccc(-c2nnc3c4ccccc4c(Nc4ccc(C)cc4)nn23)cc1 [Example 11, [3-(4-Methoxyphenyl)-[1,2,4]triazolo[3,4-a]phthalazin-6-yl]-p-tolyl-amine] | 311 °C | 7.94 to 316 nM | – | –
CCOc1ccc(Nc2nn3c(-c4ccc(OC)cc4)nnc3c3ccccc23)cc1 [Example 12, (4-Ethoxyphenyl)-[3-(4-methoxyphenyl)-[1,2,4]triazolo[3,4-a]phthalazin-6-yl]-amine] | 297.5 °C | 7.94 to 316 nM | – | –
COc1ccc(-c2nnc3c4ccccc4c(Nc4ccc(N5CCOCC5)cc4)nn23)cc1 [Example 13, [3-(4-Methoxyphenyl)-[1,2,4]triazolo[3,4-a]phthalazin-6-yl]-(4-morpholin-4-yl-phenyl)-amine] | 314 °C | 7.94 to 316 nM | – | –
COc1ccc(-c2nnc3c4ccccc4c(Nc4ccc(OC(F)(F)F)cc4)nn23)cc1 [Example 14, [3-(4-Methoxyphenyl)-[1,2,4]triazolo[3,4-a]phthalazin-6-yl]-(4-trifluoromethoxyphenyl)-amine] | 300 °C | 7.94 to 316 nM | – | –
COc1ccc(-c2nnc3c4ccccc4c(Nc4ccc(CC#N)cc4)nn23)cc1 [Example 15, {4-[3-(4-Methoxyphenyl)-[1,2,4]triazolo[3,4-a]phthalazin-6-ylamino]-phenyl}-acetonitrile] | 295 °C | 7.94 to 316 nM | – | –
COc1ccc(-c2nnc3c4ccccc4c(Nc4ccc(SC)cc4)nn23)cc1 [Example 16, [3-(4-Methoxyphenyl)-[1,2,4]triazolo[3,4-a]phthalazin-6-yl]-(4-methylsulfanylphenyl)-amine] | 326 °C | 7.94 to 316 nM | – | –
c1ccc(Oc2ccc(-c3nnc4c5ccccc5c(Nc5ccc(N6CCOCC6)cc5)nn34)cc2)cc1 [Example 17, (4-Morpholin-4-yl-phenyl)-[3-(4-phenoxyphenyl)-[1,2,4]triazolo[3,4-a]phthalazin-6-yl]-amine] | 306 °C | 7.94 to 316 nM | – | –
COc1ccc(-c2nnc3c4ccccc4c(Nc4ccc(N5CCN(C)CC5)cc4)nn23)cc1 [Example 18, [3-(4-Methoxyphenyl)-[1,2,4]triazolo[3,4-a]phthalazin-6-yl]-[4-(4-methylpiperazin-1-yl)-phenyl]-amine] | 266 °C | 7.94 to 316 nM | – | –
COC(=O)c1cccc(-c2nnc3c4ccccc4c(Nc4ccc(N5CCOCC5)cc4)nn23)c1 [Example 19, 3-[6-(4-Morpholin-4-yl-phenylamino)-[1,2,4]triazolo[3,4-a]phthalazin-3-yl]-benzoic acid methyl ester] | – | 7.94 to 316 nM | – | –
c1ccc2c(c1)c(Nc1ccc(N3CCOCC3)cc1)nn1c(-c3ccc(N4CCOCC4)cc3)nnc21 [Example 20, (4-Morpholin-4-yl-phenyl)-[3-(4-morpholin-4-yl-phenyl)-[1,2,4]triazolo[3,4-a]phthalazin-6-yl]-amine] | 322 °C | – | – | –
COC(=O)c1ccc(-c2nnc3c4ccccc4c(Nc4ccc(N5CCOCC5)cc4)nn23)cc1 [Example 22, 4-[6-(4-Morpholin-4-yl-phenylamino)-[1,2,4]triazolo[3,4-a]phthalazin-3-yl]-benzoic acid methyl ester] | 303 °C | – | – | –
CCOc1cccc(Nc2nn3c(-c4ccc(OC)cc4)nnc3c3ccccc23)c1 [Example 23, (3-Ethoxyphenyl)-[3-(4-methoxyphenyl)-[1,2,4]triazolo[3,4-a]phthalazin-6-yl]-amine] | – | 7.94 to 316 nM | – | –
COc1ccc(-c2nnc3c4ccccc4c(Nc4cccc(OC(F)(F)F)c4)nn23)cc1 [Example 24, [3-(4-Methoxyphenyl)-[1,2,4]triazolo[3,4-a]phthalazin-6-yl]-(3-trifluoromethoxyphenyl)-amine] | – | 7.94 to 316 nM | – | –
c1ccc(-c2nnc3c4ccccc4c(Nc4ccc(N5CCOCC5)cc4)nn23)cc1 [Example 25, (4-Morpholin-4-ylphenyl)-(3-phenyl-[1,2,4]triazolo[3,4-a]phthalazin-6-yl)-amine] | 306 °C | 7.94 to 316 nM | – | –
Oc1ccccc1-c1nnc2c3ccccc3c(Nc3ccc(N4CCOCC4)cc3)nn12 [Example 26, 2-[6-(4-Morpholin-4-yl-phenylamino)-[1,2,4]triazolo[3,4-a]phthalazin-3-yl]-phenol] | 317 °C | 7.94 to 316 nM | – | –
COc1ccc(-c2nnc3c4ccccc4c(Nc4cc(OC)cc(OC)c4)nn23)cc1 [Example 27, (3,5-Dimethoxyphenyl)-[3-(4-methoxyphenyl)-[1,2,4]triazolo[3,4-a]phthalazin-6-yl]-amine] | 218 °C | 7.94 to 316 nM | – | –
COc1ccc(-c2nnc3c4ccccc4c(Nc4cccc(OC(F)F)c4)nn23)cc1 [Example 28, [3-(1,1-Difluoromethoxy)-phenyl]-[3-(4-methoxyphenyl)-[1,2,4]triazolo[3,4-a]phthalazin-6-yl]-amine] | 247 °C | 7.94 to 316 nM | – | –
COc1ccc(-c2nnc3c4ccccc4c(Nc4ccc(Br)cc4)nn23)cc1 [Example 31, (4-Bromo-phenyl)-[3-(4-methoxy-phenyl)-[1,2,4]triazolo[3,4-a]phthalazin-6-yl]-amine] | 314 to 316 °C | – | – | –
CC1CC(=O)NN=C1c1cc(-n2ccnc2)cs1 (centres unmarked) [Motapizone, reference compound] | – | – | completely blocked | –
COc1ccc(C(=O)Nc2c(Cl)cncc2Cl)cc1OC1CCCC1 [RP73401, reference compound] | – | – | completely blocked | –
ANP: cGMP generator (SLRRSSCFGGRMDRIGAQSGLGCNSFRY; ends and bridges not checked; cysteine pairing not given here; UniProt P01160 124-151, looked up) [reference compound] | – | – | – | partially reversed
